Assay type in all cases: cell-based, human
One assay relates to Vγ9Vδ2 cells. Nature of the assay: Luminex (Vγ9Vδ2): cytokine/chemokine secretion by pre-expanded Vγ9Vδ2 cells.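 Note: Vγ9Vδ2 cells purified from PBMC, activated 48 h with CD3 and CD28 plus IL-2, expanded 14 days in IL-2, then thawed and rested overnight in IL-2.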 The conditions noted are these: 16 hrs, antibodies 10 μg/ml, Zoledronic acid 4 μM, HMBPP 0.5 ng/ml, duplicates, 0 set to 0.1.
Assay [1] deals with in vitro pre-expanded CD3+Vδ2+ γδ T cells. As to the kind of experiment: HMBPP or anti-CD3/anti-CD28 activation of purified in vitro-expanded Vδ2+ T cells ± neutralizing anti-BTN2A1 mAb. The conditions noted are these: HMBPP 0.5 ng/ml, 10 μg/ml neutralizing anti-BTN2A1 mAb, no APCs. As to the method:
CD25 expression was determined by flow cytometry, and IFN-γ concentration was determined by cytometric bead array (BD Bioscience) as per manufacturer instructions.

The subject of the next assay is γδ T cells. As to the kind of experiment: Identification of BTN2A1 agonistic antibodies: CD25 and interferon γ of expanded γδ T cells. The conditions noted are these: 10 μg/ml antibody overnight, vs isotype control BM4. As to the method:
In some experiments γδ T cells were enriched by MACS using PE-Cy7-conjugated anti-γδTCR followed by anti-phycoerythrin-mediated magnetic bead purification (Miltenyi Biotec). After enrichment CD3+Vδ2+ γδ T cells were further purified by sorting using an Aria III (BD). Enriched γδ T cells were stimulated in vitro for 48 h with plate-bound anti-CD3ε (OKT3, 10 ug/ml, Bio-X-Cell), soluble anti-CD28 (CD28.2, 1 ug/ml, BD Pharmingen), phytohemagglutinin (0.5 μg/ml, Sigma), IL-15 (50 ng/ml), and recombinant human IL-2 (100 U/ml, PeproTech), followed by maintenance with IL-2 and IL-15 for 14-21 d. Cells were cultured in complete medium consisting of a 50:50 (v/v) mixture of RPMI-1640 and AIM-V (Invitrogen) supplemented with 10% (v/v) FCS (JRH Biosciences), penicillin (100 U/ml), streptomycin (100 μg/ml), Glutamax (2 mM), sodium pyruvate (1 mM), nonessential amino acids (0.1 mM), and HEPES buffer (15 mM), pH 7.2-7.5 (all from Invitrogen Life Technologies), plus 50 μM 2-mercaptoethanol (Sigma-Aldrich).
The inventors screened the panel of antibodies specific for BTN2A1, as described above, to identify those able to agonise BTN2A1. The inventors assessed the ability of anti-BTN2A1 antibodies to activate γδ T cells. The inventors assessed upregulation of CD25 on the surface of previously expanded γδ T cells following culturing the cells with 10 μg/ml anti-BTN2A1 antibodies or isotype control antibody (BM4) overnight.
The inventors additionally measured levels of interferon γ secreted by γδ T cells following culture in the presence of 10 μg/ml anti-BTN2A1 antibodies or isotype control antibody (BM4) overnight. Interferon γ secretion is another indicator of TCR-dependent activation.

[2] abbreviates: γδT cells from patient 1 (melanoma patient).

Values joined by “and” are separate entries in the source; they are usually repeats but may differ in a detail not shown here. Identical values can stand only once.

Description for Vγ9Vδ2 cells: Briefly, Vγ9Vδ2 cells were isolated from 1 healthy donor (Red Cross Australia) and 1 cancer patient derived PBMC using TCRγ/δ+ T Cell Isolation Kit (Miltenyi). Cells were stimulated for 48 hours in TCRPMI supplemented with 100u/ml IL-2, CD3 (10 μg/ml) and CD28 (1 μg/ml). Cells were washed and grown for 14 days in TCRPMI supplemented with 100u/ml IL-2 at 37 degrees C. and 5% CO2, and then frozen down. […] Vγ9Vδ2 were defrosted and rested overnight in TCRPMI supplemented with 50u/ml IL-2 at 37 degrees C. and 5% CO2. […] All samples were run with appropriate controls and standards.

Consider `O=P(O)(O)C(O)(Cn1ccnc1)P(=O)(O)O` [Zoledronate, zoledronate, reference compound], for which, in the assay on Vγ9Vδ2 cells (γδT cells from a healthy donor), the GMCSF is 254.29 pg/mL and 268.62 pg/mL; the ICAM-1 was 490.35 pg/mL and 504.11 pg/mL; the IFNγ was 58.38 pg/mL and 58.97 pg/mL; the IL-4 came to 0.1 pg/mL. Besides, in the assay on Vγ9Vδ2 cells (γδT cells from a healthy donor), the IL-8 turned out to be 0.1 pg/mL; the IL-13 was 5.22 pg/mL and 4.43 pg/mL; the IL-17A turned out to be 0.1 pg/mL; the MIP-1a was 121.61 pg/mL and 125.27 pg/mL. Moreover, in the assay with Vγ9Vδ2 cells (γδT cells from a healthy donor), the MIP-1b was 1280.91 pg/mL and 1334.19 pg/mL; the TNFα is 13.03 pg/mL and 13.02 pg/mL; the sE-selectin was determined as 190.9 pg/mL; the sP-Selectin was 200.54 pg/mL and 313.85 pg/mL. Also, in the assay with Vγ9Vδ2 cells (setting [2]), the GMCSF was 650.17 pg/mL and 619.93 pg/mL; the ICAM-1 is 968.87 pg/mL and 888.51 pg/mL; the IFNγ is 175.86 pg/mL and 171.42 pg/mL; the IL-4 is 7.43 pg/mL and 7.68 pg/mL. Also, in the assay with Vγ9Vδ2 cells (setting [2]), the IL-8 turned out to be 0.1 pg/mL; the IL-13 was 235.43 pg/mL and 219.81 pg/mL; the IL-17A was 3.5 pg/mL and 4.08 pg/mL; the MIP-1a was 274.25 pg/mL and 273.85 pg/mL. Moreover, in the assay with Vγ9Vδ2 cells (setting [2]), the MIP-1b is 5061.49 pg/mL and 4756.68 pg/mL; the TNFα is 105.84 pg/mL and 102.44 pg/mL; the sE-selectin was 259.01 pg/mL and 287.88 pg/mL; the sP-Selectin is 1239.34 pg/mL and 1299.54 pg/mL.

B1: clone 266: neutralizing anti-BTN2A1 mAb; VH SEQ ID NO: 124, VL SEQ ID NO: 125 (antibody, V domains shown)
VH: EVQLLESGGGLVQPGGSLRLSCAASGFTFSMYTMMWVRQAPGKGLEWVSGIGSSGGHTKYADSVKGRFTISRDNSKNTLYLQMNSLRAEDTAVYYCARYGHTFETWGQGTMVTVSS
VL: QYELTQPPSASGTPGQRVTISCSGSSSNIGSNYVYWYQQLPGTAPKLLIYRNNQRPSGVPDRFSGSKSGTSASLAISGLRSEDEADYYCAAWDDSLSGSYVFGTGTKVTVL
modifications: amino acid sequence of clone 266 VH; amino acid sequence of clone 266 VL
As for B1, the “HMBPP-induced activation (CD25 upregulation, IFN-γ production)” value in assay [1] was “failed to upregulate CD25 and produce IFN-γ”.

B2: clone 236: neutralizing anti-BTN2A1 mAb; VH SEQ ID NO: 116, VL SEQ ID NO: 117 (antibody, V domains shown)
VH: EVQLLESGGGLVQPGGSLRLSCAASGFTFSHYSMSWVRQAPGKGLEWVSGISSSGGFTPYADSVKGRFTISRDNSKNTLYLQMNSLRAEDTAVYYCTGGSGFDIWGQGTMVTVSS
VL: DIQMTQSPSTLSVSVGDRVTITCRASQTISSWLAWFQQKPGQAPKLLIYRASTLETGVPSRFSGSESGTTFTLTINGLQPDDLATYYCQQYATFPWTFGQGTKVEVK
modifications: amino acid sequence of clone 236 VH; amino acid sequence of clone 236 VL
Take B2: the “HMBPP-induced activation (CD25 upregulation, IFN-γ production)” value in assay [1] was “failed to upregulate CD25 and produce IFN-γ”.

B3: antibody 244: agonistic anti-BTN2A1 antibody; VL SEQ ID NO: 140, VH SEQ ID NO: 144 (antibody, V domains shown)
VH: EVQLLESGGGLVQPGGSLRLSCAASGFTFSEYSMSWVRQAPGKGLEWVSRIGPSGGGTVYADSVKGRFTISRDNSKNTLYLQMNSLRAEDTAMYYCARLGRGAVAELDYWGQGTLVTVSS
VL: QSVLTQPHSVSESPGKTVTISCTRSSGRIGSNYVHWYQHLPGRAPKLLIYGNSNRPSGVPDRFSGSKSGTSASLAITGLQADDEADYYCQTYDNNVWVFGGGTKLTVL
modifications: amino acid sequence of the VH of antibody 244; amino acid sequence of the VL of antibody 244
For B3, in the assay on γδ T cells, the “level of secreted interferon γ” value was “increase the level of secreted interferon γ” and the “percentage of γδ T cells expressing CD25” value is listed as “increase the percentage of γδ T cells expressing CD25”.

For the origin of these results see US20220273713A1, “METHOD OF INHIBITING OR ACTIVATING GAMMA DELTA T CELLS” (The University of Melbourne, priority 2019, published 2022).
